Measured values taken from the supplement of paper PMC6470124.

Assays:
[1] = LC retention time (Atlantis T3, 5-95% MeOH gradient, 0.1% formic acid); higher = more retained / less polar
Procedure, shortened: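 Retention times were recorded for reference standards (purity ≥ 95%) on a polar reversed-phase C18 column (Atlantis T3, 3 × 150 mm, 3 μm) at 0.3 mL/min. Elution used water and methanol, each with 0.1% formic acid, in a gradient from 5 to 95% methanol over 17.5 min. Detection was by high-resolution tandem mass spectrometry on a QExactive Plus, with positive and negative electrospray in separate runs. Peaks were found and integrated in TraceFinder (5 ppm tolerance, at least three points per peak) and then checked by hand.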

[2] = absolute recovery over vacuum-assisted evaporative concentration; higher = better recovery; conditions: enrichment method: VEC
Procedure, shortened: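 Samples of influent (6 mL), effluent (15 mL) and surface or nanopure water (60 mL) were spiked with standards before or after concentration, or left unspiked, at 200 ng/L (nanopure/surface) or 1000 ng/L (wastewater), adjusted by class and compound. Concentration was by evaporation at 55 °C and 20 mbar to about 0.3 mL, followed by adjustment to 0.4 mL and centrifugation. Internal standards were then added for LC-HRMS/MS analysis. Absolute recovery was (response ratio pre − unspiked)/(post − unspiked) × 100, using averages of ≥ 2 replicates.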

[3] = absolute recovery over mixed-bed multilayer solid-phase extraction; higher = better recovery; conditions: enrichment method: SPE
Procedure, shortened: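 Absolute recovery rests on background-corrected response ratios of pre- versus post-spiked samples, averaged over at least two replicates. Wastewater (100–250 mL, pH 6.5, glass-fibre filtered) was spiked at 1000 ng/L and unfiltered nanopure water (1000 mL) at 200 ng/L, before or after three-layer mixed-bed cartridge extraction or not at all, with exceptions for some classes. Analysis after internal standard addition used liquid chromatography with high-resolution tandem mass spectrometry in both ionisation modes.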

| SMILES | LC retention time [1] [min] | absolute recovery ([2]; wastewater effluent) [%] | absolute recovery ([2]; wastewater influent) [%] | absolute recovery ([3]; nanopure water) [%] | absolute recovery ([3]; surface water) [%] | absolute recovery ([3]; wastewater effluent) [%] | absolute recovery ([3]; wastewater influent) [%] |
| --- | --- | --- | --- | --- | --- | --- | --- |
| CN(C)c1nc(=O)n(C2CCCCC2)c(=O)n1C [Hexazinon] | 17.2 | 106 | 92.6 | 96.4 | 93.7 | 94.3 | 88.8 |
| O=C1Nc2ccc(Cl)cc2C(c2ccccc2)=NC1O (stereo unspecified) [Oxazepam] | 18.4 | 104 | 98.7 | 99.5 | 98.7 | 91.9 | 93.9 |
| C[NH2+]C(C)Cc1ccccc1 (stereo unspecified) [Methamphetamin] | 10.6 | 100 | 91.3 | 92.5 | 86.6 | 89.3 | 92.5 |
| O=C([O-])c1cc(Br)c([O-])c(Br)c1 [3-5-Dibromo-4-hydroxybenzoic-acid] | 17.6 | 104 | 99.2 | – | 92.6 | 97.9 | 94.4 |
| Cc1c(N)c(=O)n(-c2ccccc2)n1C [4-Aminopyrin (=4-Aminoantipyrin, 4-AA)] | 9.66 | 84.1 | 75.5 | 37.8 | 55.7 | 24.6 | 37.4 |
| CC(C)N1C(=O)N(c2ccccc2)CSC1=NC(C)(C)C [Buprofezin] | 22 | 75.3 | 100 | 67.9 | 86.2 | 87.5 | 118 |
| CC([NH3+])C(O)c1ccccc1 (stereo unspecified) [Cathine] | 9.27 | 104 | 96.1 | 75.1 | 70.2 | 68.1 | 77.6 |
| Cc1ncc2n1-c1ccc(Cl)cc1C(c1ccccc1F)=NC2 [Midazolam] | 14.5 | 102 | 106 | 87.5 | 90.5 | 89.6 | 83 |
| CC([NH3+])Cc1ccccc1 (stereo unspecified) [Amphetamin] | 10.4 | 97.8 | 85.5 | 97.7 | 85.5 | 87.4 | 91.8 |
| Nc1cnn(-c2ccccc2)c(=O)c1Cl [Chloridazon] | 14.7 | 104 | 104 | 97.1 | 98.1 | – | 96.1 |
| CCc1cccc(C)c1N(C(=O)CCl)C(C)COC (stereo unspecified) [Metolachlor] | 20.6 | 93.1 | 91.7 | – | 93 | 90.6 | 92.5 |
| O=C(NC(=O)c1c(F)cccc1F)Nc1ccc(Cl)cc1 [Diflubenzuron] | 20.5 | 112 | 147 | 101 | 138 | 114 | 67.9 |
| CC1=NNC(=O)N(N=Cc2cccnc2)C1 [Pymetrozin] | 8.65 | 107 | 110 | 118 | 112 | 106 | 97 |
| CCCN(CCOc1c(Cl)cc(Cl)cc1Cl)C(=O)n1ccnc1 [Prochloraz] | 20.6 | 103 | 101 | 99.3 | 96.4 | 93.9 | 92.3 |
| O=P1(NCCCl)OCCCN1CCCl (stereo unspecified) [Ifosfamid] | 15.5 | 102 | 99.2 | 109 | 99.4 | 92.9 | 89.1 |
| COC(=O)Nc1nc2ccccc2[nH]1 [Carbendazim] | 10.8 | 105 | 103 | 96.1 | 94.3 | 93.2 | 94.1 |
| CCC(=O)OC(Cc1ccccc1)(c1ccccc1)C(C)C[NH+](C)C (stereo unspecified) [Propoxyphene] | 15.6 | 108 | 110 | 85.3 | 94.6 | 91.5 | 72.4 |
| COCC(C)N(C(=O)CCl)c1c(C)csc1C (stereo unspecified) [Dimethenamid] | 19.6 | 96 | 92.1 | 94.4 | 92.8 | 91.7 | 92.1 |
| C[NH2+]C(C)C(O)c1ccccc1 (stereo unspecified) [Ephedrin] | 9.53 | 107 | 99 | 93.4 | 93.3 | 89.3 | 89.4 |
| CC[N+]1([O-])CCCC1CNC(=O)c1cc(S(=O)(=O)CC)c(N)cc1OC (stereo unspecified) [Amisulpride-N-Oxide] | 11.2 | 105 | 105 | 99.2 | 95.3 | 93.2 | 93.4 |
| NC(=O)N=C1SCCN1Cc1ccc(Cl)nc1 [Thiacloprid-amide] | 13.2 | 106 | 104 | 109 | 108 | 104 | 96.3 |

Second part, the compound after the results:

| LC retention time [1] [min] | absolute recovery ([2]; wastewater effluent) [%] | absolute recovery ([2]; wastewater influent) [%] | absolute recovery ([3]; nanopure water) [%] | absolute recovery ([3]; surface water) [%] | absolute recovery ([3]; wastewater effluent) [%] | absolute recovery ([3]; wastewater influent) [%] | SMILES |
| --- | --- | --- | --- | --- | --- | --- | --- |
| 23.1 | 90.6 | 36.6 | 97.7 | 22 | 51.5 | 96.2 | CCC(=O)OC(OP(=O)(CCCCc1ccccc1)CC(=O)N1CC(C2CCCCC2)CC1C(=O)[O-])C(C)C (stereo unspecified) [Fosinopril] |
| 19.7 | 108 | 102 | 94.2 | 94.6 | 95.3 | 94.3 | CC(C)OC(=O)NC(C(=O)NC(C)c1nc2ccc(F)cc2s1)C(C)C (stereo unspecified) [Benthiavalicarb-isopropyl] |
| 18.7 | 104 | 99.4 | 96.9 | 97.3 | 90.7 | 92.5 | CCOc1nc2cccc(C(=O)[O-])c2n1Cc1ccc(-c2ccccc2-c2nnn[n-]2)cc1 [Candesartan] |
| 15.8 | 38.8 | 45.5 | 40.5 | 19.3 | 28.1 | 53.3 | COc1cccc2c1C(=O)c1c(O)c3c(c(O)c1C2=O)CC(O)(C(=O)CO)CC3OC1CC([NH3+])C(O)C(C)O1 (stereo unspecified) [Doxorubicin] |
| 15.8 | 66.4 | 77.5 | 65.9 | 56.4 | 64.9 | 72.2 | CCC1OC(=O)CC(O)C(C)C(OC2OC(C)C(OC3CC(C)(O)C(O)C(C)O3)C([NH+](C)C)C2O)C(CC=O)CC(C)C(=O)C=CC(C)=CC1COC1OC(C)C(O)C(OC)C1OC (stereo unspecified) [Tylosin] |
| 22 | 90.5 | 92.4 | 63.9 | 98 | 75.8 | 73.4 | Cc1cccc(N(C)C(=S)Oc2ccc3ccccc3c2)c1 [Tolnaftat] |
| 17.7 | 108 | 101 | 93.3 | 93.1 | 90.8 | 96.3 | CCCCCOC(=O)[N-]c1nc(=O)n(C2OC(C)C(O)C2O)cc1F (stereo unspecified) [Capecitabin] |
| 12.2 | 102 | 106 | 68.6 | 71.5 | 70.5 | 77.3 | C#CC[N+](C)([O-])C(C)Cc1ccccc1 (stereo unspecified) [Deprenyl-N-Oxide] |
| 18.8 | 102 | 93.4 | 93.6 | 93.1 | 90.1 | 93.2 | CCOC(=O)C1CC(=O)C(=C([O-])C2CC2)C(=O)C1 (stereo unspecified) [Trinexapac-ethyl] |
| 18 | 101 | 102 | 98.3 | 100 | 96.4 | 94.9 | NC(=O)Nc1ccc(Cl)c(Cl)c1 [Diuron-desdimethyl (=1-(3-4-Dichlorophenyl)urea)] |
| 20.5 | 105 | 124 | 102 | 104 | 92.4 | 134 | O=C1Nc2ccc(Cl)cc2C(C#CC2CC2)(C(F)(F)F)O1 (stereo unspecified) [Efavirenz] |
| 18 | 101 | 97.7 | 96.4 | 92.6 | 93.5 | 99.1 | COC=C(C(=O)[O-])c1ccccc1Oc1cc(Oc2ccccc2C#N)ncn1 [Azoxystrobin-acid] |
| 20.7 | 51.4 | 56.6 | 100 | 111 | 100 | 77.4 | COc1ccc(C(=O)c2ccccc2)c(O)c1 [Benzophenon-3 (=2-Hydroxy-4-methoxybenzophenon)] |
| 6.11 | 100 | – | 109 | 135 | 112 | – | CN1C(=O)CCC1c1cccnc1 (stereo unspecified) [Cotinine] |
| 18.3 | 99.1 | 105 | 85.5 | 85.9 | 80.1 | 88 | CCCCc1nc(Cl)c(CO)n1Cc1ccc(-c2ccccc2-c2nn[nH]n2)cc1 [Losartan] |
| 15.9 | 100 | 95.6 | 100 | 95.5 | 89.9 | 136 | CN(C)S(=O)(=O)Nc1ccccc1 [DMSA (=N-N-Dimethylaminosulfanilid)] |
| 18.8 | 92.5 | 106 | 91.4 | 91.2 | 89.2 | 94.2 | CN(C)C(=O)NC1CCCCCCC1 [Cycluron] |
| 16.2 | 117 | 109 | 93.2 | 111 | 93.7 | 70.7 | CC(COc1ccccc1Cc1ccccc1)[NH+]1CCCCC1 (stereo unspecified) [Benproperine] |
| 21.1 | 84.3 | 87.1 | 98 | 107 | 96.9 | 95 | CCOC(=O)C1=NN(c2ccc(Cl)cc2Cl)C(C)(C(=O)OCC)C1 (stereo unspecified) [Mefenpyr-diethyl] |
| 11.8 | 108 | 108 | 76.8 | 81.4 | 85.3 | 96.4 | Cc1cc(O)nc(C(C)C)n1 [Pyrimidinol] |
| 15.6 | 91.2 | 96.4 | 94.5 | – | – | – | CC(C)(C)c1n[nH]c(=O)n(N)c1=O [Metribuzin-Diketo (=DK)] |
| 10.2 | 99.2 | 104 | 91.5 | 102 | 97 | 101 | Cn1ncc(N)c(Cl)c1=O [Chloridazon-methyl-desphenyl] |
| 11.6 | 106 | 103 | 78.4 | 74.7 | 80 | 89.6 | Cc1cccc(C)c1NC(=O)C1CCCC[NH+]1C (stereo unspecified) [Mepivacaine] |
| 19.1 | 106 | 99.5 | 93.7 | 91.2 | 93 | 92.4 | CC(C)N(C(=O)C(=O)[O-])c1ccc(F)cc1 [Flufenacet-OXA] |
| 7.16 | 105 | 114 | 70 | – | 1.9 | – | CC(Cn1cnc2c(N)ncnc21)OCP(=O)([O-])O (stereo unspecified) [Tenofovir] |
| 9.13 | 108 | 103 | 90.9 | 94.9 | 90.3 | 94.9 | CC[NH+](CC)CCNC(=O)c1cc(S(C)(=O)=O)ccc1OC [Tiaprid] |
| 7.56 | 102 | 98.3 | 58.5 | 67.9 | 70.2 | 72.3 | Nc1cn[nH+]c([O-])c1Cl [Chloridazon-desphenyl] |
| 16.5 | 118 | 101 | 94.2 | 100 | 94.9 | 88.7 | CCNC(=O)C(C)OC(=O)Nc1ccccc1 (stereo unspecified) [Carbetamid] |
| 22.2 | 117 | – | 60.5 | 85.9 | 76.6 | 32.2 | O=C([O-])C[N-]S(=O)(=O)C(F)(F)C(F)(F)C(F)(F)C(F)(F)C(F)(F)C(F)(F)C(F)(F)C(F)(F)F [FOSAA] |
| 12.2 | 105 | 101 | 98.7 | 96.1 | 94 | 90 | CC(=O)Nc1ccc(S(=O)(=O)[N-]c2nccs2)cc1 [N4-Acetyl-Sulfathiazol] |
